Source: patent US12404250B2, “PARP inhibitors for treating cancer and asthma” (Oregon Health & Science University, priority 2018, dated 2025)

Legend:
Assay type in all cases: biochemical
[1] = target: PARP 2 (Homo sapiens, UniProt Q9UGN5); experiment: In vitro IC50, PARP2; conditions: SEM from a minimum of three dose-response experiments
[2] = target: T1, PARP 3 (Homo sapiens, UniProt Q9Y6F1); experiment: In vitro IC50, PARP3; conditions: SEM from a minimum of three dose-response experiments
T1 sequence (Q9Y6F1 1-533): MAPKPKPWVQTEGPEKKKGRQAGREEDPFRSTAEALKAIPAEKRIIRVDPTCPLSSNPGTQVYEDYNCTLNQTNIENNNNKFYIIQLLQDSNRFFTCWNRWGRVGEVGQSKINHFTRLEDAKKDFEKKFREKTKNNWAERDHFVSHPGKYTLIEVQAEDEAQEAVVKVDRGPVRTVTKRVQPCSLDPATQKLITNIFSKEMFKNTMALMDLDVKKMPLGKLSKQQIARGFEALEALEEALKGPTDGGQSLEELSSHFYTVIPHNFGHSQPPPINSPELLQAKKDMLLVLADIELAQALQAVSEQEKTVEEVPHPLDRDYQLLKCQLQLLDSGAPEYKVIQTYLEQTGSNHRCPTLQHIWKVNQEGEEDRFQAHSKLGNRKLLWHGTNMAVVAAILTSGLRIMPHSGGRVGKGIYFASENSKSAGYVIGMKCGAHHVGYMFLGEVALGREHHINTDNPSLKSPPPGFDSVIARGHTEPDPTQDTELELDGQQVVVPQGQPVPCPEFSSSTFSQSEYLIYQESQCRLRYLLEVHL

[3] = target: PARP 1 (Homo sapiens, UniProt P09874); experiment: In vitro IC50, PARP1; conditions: SEM from a minimum of three dose-response experiments
[4] = target: T2, PARP12 (Homo sapiens, UniProt Q9H0J9); experiment: In vitro IC50, immunoprecipitated GFP-PARP12 auto-MARylation
T2 construct: expressed in transfected cells; host or cells: HEK 293T
T2 sequence (Q9H0J9 1-701): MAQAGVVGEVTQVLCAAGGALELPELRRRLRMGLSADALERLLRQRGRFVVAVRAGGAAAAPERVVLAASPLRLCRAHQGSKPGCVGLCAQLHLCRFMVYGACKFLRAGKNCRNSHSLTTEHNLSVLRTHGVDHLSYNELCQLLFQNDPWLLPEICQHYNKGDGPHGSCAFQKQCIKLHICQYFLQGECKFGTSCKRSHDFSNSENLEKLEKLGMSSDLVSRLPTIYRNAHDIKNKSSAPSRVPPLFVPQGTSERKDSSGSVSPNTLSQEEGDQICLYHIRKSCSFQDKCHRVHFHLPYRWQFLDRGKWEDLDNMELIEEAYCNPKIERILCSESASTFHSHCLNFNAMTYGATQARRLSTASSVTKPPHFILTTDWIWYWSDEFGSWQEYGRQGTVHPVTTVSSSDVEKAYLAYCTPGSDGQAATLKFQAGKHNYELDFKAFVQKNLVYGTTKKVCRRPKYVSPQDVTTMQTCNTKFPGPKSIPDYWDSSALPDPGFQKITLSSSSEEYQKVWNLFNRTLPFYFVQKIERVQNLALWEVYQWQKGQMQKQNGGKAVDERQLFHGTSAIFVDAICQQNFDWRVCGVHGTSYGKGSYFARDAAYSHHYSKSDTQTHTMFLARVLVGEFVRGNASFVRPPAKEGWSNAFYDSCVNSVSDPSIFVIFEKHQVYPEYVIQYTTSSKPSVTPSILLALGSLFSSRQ
Description: Auto-MARylation was analyzed by Western blot with an ADP-ribose (ADPr) binding reagent (uncropped blots shown below).

Sequence of PARP 2 (Q9UGN5 whole entry): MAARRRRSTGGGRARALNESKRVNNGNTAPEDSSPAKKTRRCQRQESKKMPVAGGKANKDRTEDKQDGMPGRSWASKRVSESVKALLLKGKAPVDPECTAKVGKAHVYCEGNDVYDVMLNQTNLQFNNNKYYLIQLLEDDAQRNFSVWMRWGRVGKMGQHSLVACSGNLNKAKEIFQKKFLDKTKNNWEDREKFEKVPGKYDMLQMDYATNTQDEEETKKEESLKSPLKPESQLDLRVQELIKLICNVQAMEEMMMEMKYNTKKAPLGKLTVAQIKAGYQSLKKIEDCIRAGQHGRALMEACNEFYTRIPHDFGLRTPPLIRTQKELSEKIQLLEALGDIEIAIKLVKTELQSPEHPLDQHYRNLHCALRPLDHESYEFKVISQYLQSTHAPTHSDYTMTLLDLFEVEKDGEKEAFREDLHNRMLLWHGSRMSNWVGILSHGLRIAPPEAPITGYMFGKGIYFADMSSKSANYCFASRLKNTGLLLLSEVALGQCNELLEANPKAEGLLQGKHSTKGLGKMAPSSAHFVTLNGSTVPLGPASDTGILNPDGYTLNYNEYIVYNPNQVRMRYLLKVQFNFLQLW
Sequence of PARP 1 (P09874 whole entry): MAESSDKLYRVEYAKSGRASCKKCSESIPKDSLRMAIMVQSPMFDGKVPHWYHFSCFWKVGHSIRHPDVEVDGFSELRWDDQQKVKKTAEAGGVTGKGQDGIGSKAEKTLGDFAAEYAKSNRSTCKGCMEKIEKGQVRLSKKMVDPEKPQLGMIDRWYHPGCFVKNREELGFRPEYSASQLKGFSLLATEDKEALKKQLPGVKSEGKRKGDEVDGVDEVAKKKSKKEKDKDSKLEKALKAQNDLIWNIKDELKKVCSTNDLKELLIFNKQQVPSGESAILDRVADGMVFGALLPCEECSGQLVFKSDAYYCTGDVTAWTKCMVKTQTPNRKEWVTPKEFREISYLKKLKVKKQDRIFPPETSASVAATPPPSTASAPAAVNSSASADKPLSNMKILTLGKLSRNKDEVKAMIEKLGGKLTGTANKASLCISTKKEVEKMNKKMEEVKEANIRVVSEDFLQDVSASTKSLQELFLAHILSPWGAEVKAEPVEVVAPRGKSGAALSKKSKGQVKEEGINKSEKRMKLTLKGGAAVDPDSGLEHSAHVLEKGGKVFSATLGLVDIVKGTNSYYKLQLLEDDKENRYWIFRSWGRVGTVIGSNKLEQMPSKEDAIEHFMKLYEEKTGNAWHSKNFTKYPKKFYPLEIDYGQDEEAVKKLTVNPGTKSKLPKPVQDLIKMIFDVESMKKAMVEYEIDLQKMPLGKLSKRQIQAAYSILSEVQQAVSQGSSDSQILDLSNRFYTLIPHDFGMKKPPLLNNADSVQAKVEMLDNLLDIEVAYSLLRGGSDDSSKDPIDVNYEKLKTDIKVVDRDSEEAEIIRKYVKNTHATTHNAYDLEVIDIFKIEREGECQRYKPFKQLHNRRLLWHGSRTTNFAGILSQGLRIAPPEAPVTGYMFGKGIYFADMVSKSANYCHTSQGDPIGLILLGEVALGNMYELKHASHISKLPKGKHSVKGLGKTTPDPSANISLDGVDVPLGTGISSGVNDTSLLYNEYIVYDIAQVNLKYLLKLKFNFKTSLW

CC#Cc1ccc2c(=O)[nH]c(CSc3ncccn3)nc2c1C [ITK7, 8-methyl-7-(prop-1-yn-1-yl)-2-((pyrimidin-2-ylthio)methyl)quinazolin-4(3H)-one]
IC50 [1]: > 30 µM | IC50 [2]: > 30 µM | IC50 [3]: > 30 µM | IC50 [4]: > 3 µM
